Measured values taken from the supplement of paper PMC10307832.

Legend:
Experiment in all cases: relative viability (nuclei count vs DMSO), 5 days (fraction); higher = more cells survive
Dasatinib + Olaparib = compound: Cc1nc(Nc2ncc(C(=O)Nc3c(C)cccc3Cl)s2)cc(N2CCN(CCO)CC2)n1 [Dasatinib] + O=C(c1cc(Cc2n[nH]c(=O)c3ccccc23)ccc1F)N1CCN(C(=O)C2CC2)CC1 [Olaparib] (partner 8 µM)
Outline: (§1)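 After 5 days of treatment, lung cancer cells in 1536-well plates were fixed and stained in a single step (final 0.05% Triton X-100, 1% formaldehyde, 1 ug/ml Hoechst) and their nuclei counted on 4× images. Treatment had been applied by pin tool the day after seeding as one drug alone or as a fixed anchor-drug dose with five library-drug doses (not always all listed) in √10 steps. Relative viability is the nuclei count of treated wells divided by that of vehicle wells, and values are medians of duplicate plates.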

ALW-II-49-7 + Foretinib = compound: Cc1ccc(C(=O)Nc2cccc(C(F)(F)F)c2)cc1Nc1cncc(C(N)=O)c1 [ALW-II-49-7] + COc1cc2c(Oc3ccc(NC(=O)C4(C(=O)Nc5ccc(F)cc5)CC4)cc3F)ccnc2cc1OCCCN1CCOCC1 [Foretinib] (partner 0.25 µM)
Outline: as §1

Dasatinib + Trametinib = compound: Cc1nc(Nc2ncc(C(=O)Nc3c(C)cccc3Cl)s2)cc(N2CCN(CCO)CC2)n1 [Dasatinib] + CC(=O)Nc1cccc(-n2c(=O)n(C3CC3)c(=O)c3c(Nc4ccc(I)cc4F)n(C)c(=O)c(C)c32)c1 [Trametinib] (partner 0.02 µM)
Outline: as §1

Dasatinib + Pictilisib = compound: Cc1nc(Nc2ncc(C(=O)Nc3c(C)cccc3Cl)s2)cc(N2CCN(CCO)CC2)n1 [Dasatinib] + CS(=O)(=O)N1CCN(Cc2cc3nc(-c4cccc5[nH]ncc45)nc(N4CCOCC4)c3s2)CC1 [Pictilisib] (partner 1 µM)
Outline: as §1

Cell Line	relative viability (Dasatinib + Olaparib; first compound 0.005 µM)	relative viability (Dasatinib + Olaparib; first compound 0.01581 µM)	relative viability (Dasatinib + Olaparib; first compound 0.05 µM)	relative viability (Dasatinib + Olaparib; first compound 0.1581 µM)	relative viability (Dasatinib + Olaparib; first compound 0.5 µM)	relative viability (ALW-II-49-7 + Foretinib; first compound 0.08 µM)	relative viability (ALW-II-49-7 + Foretinib; first compound 0.253 µM)	relative viability (ALW-II-49-7 + Foretinib; first compound 0.8 µM)	relative viability (ALW-II-49-7 + Foretinib; first compound 2.53 µM)	relative viability (ALW-II-49-7 + Foretinib; first compound 8 µM)	relative viability (Dasatinib + Trametinib; first compound 0.005 µM)	relative viability (Dasatinib + Trametinib; first compound 0.01581 µM)	relative viability (Dasatinib + Trametinib; first compound 0.05 µM)	relative viability (Dasatinib + Trametinib; first compound 0.1581 µM)	relative viability (Dasatinib + Trametinib; first compound 0.5 µM)	relative viability (Dasatinib + Pictilisib; first compound 0.005 µM)	relative viability (Dasatinib + Pictilisib; first compound 0.01581 µM)	relative viability (Dasatinib + Pictilisib; first compound 0.05 µM)	relative viability (Dasatinib + Pictilisib; first compound 0.1581 µM)	relative viability (Dasatinib + Pictilisib; first compound 0.5 µM)
HCC-366	0.263	0.206	0.217	0.157	0.141	1	1.02	0.941	1	1.08	0.283	0.182	0.218	0.16	0.117	0.0952	0.074	0.0543	0.0636	0.0661
NCI-H1355	0.747	0.541	0.73	0.582	0.442	1.05	0.895	0.969	0.887	1.02	0.48	0.346	0.5	0.293	0.265	0.452	0.233	0.397	0.297	0.282
NCI-H1650	0.741	0.614	0.571	0.442	0.282	1.04	1.18	1.08	1.05	1.13	0.667	0.493	0.406	0.313	0.216	0.481	0.277	0.259	0.215	0.199
SW 1573	0.424	0.378	0.347	0.253	0.327	0.92	0.729	0.945	1.19	1.02	0.531		0.475	0.33	0.433	0.431	0.426	0.379	0.265	0.203
NCI-H661	0.731	0.792	0.747	0.618	0.592	1.17	1.08	0.954	1.01	0.884	0.629	0.49	0.532	0.445	0.338	0.269	0.272	0.225	0.274	0.269
LU99A	0.283	0.259	0.265	0.188	0.166	0.82	0.936	0.92	0.867	0.768	0.539	0.576	0.458	0.372	0.328	0.332	0.347	0.293	0.25	0.194
LCLC-97TM1	0.468	0.449	0.557	0.393	0.4	0.869	0.894	1.06	0.939	0.933	0.221	0.14	0.174	0.0952	0.0916	0.206	0.206	0.192	0.18	0.12
LC-2-ad	0.752	0.666	0.746	0.573	0.516	0.863	0.881	0.929	0.559	0.905	0.914	0.906	0.909	0.735	0.457	0.397	0.346	0.237	0.128	0.0796
NCI-H1395	0.431	0.46	0.376	0.355	0.311	1.09	1.03	1	1.03	0.943	1.12	0.968	1.03	0.605	0.327	0.713	0.593	0.552	0.337	0.376
NCI-H2228	0.847	0.647	0.714	0.464	0.273	1.07	0.651	0.736	0.848	0.795	0.463	0.776	0.556	0.39	0.249	0.361	0.289	0.273	0.215	0.212
NCI-H1944	0.415	0.298	0.332	0.191	0.135	0.997	0.801	0.964	0.846	0.954	0.389	0.367	0.348	0.218	0.153	0.308	0.274	0.274	0.258	0.268
HOP-62	0.32	0.381	0.307	0.434	0.204	1.22	1.14	1.17	0.935	0.837	0.344	0.333	0.32	0.211	0.162	0.636	0.581	0.565	0.223	0.143
NCI-H2347	0.566	0.508	0.482	0.269	0.256	1.1	1.04	0.906	0.227	0.844	0.25	0.277	0.221	0.157	0.164	0.419	0.328	0.316	0.493	0.347
NCI-H2087	0.635	0.55	0.902	0.42	0.349	1.22	1.12	1.09	1.08	1.04	0.291	0.2	0.178	0.124	0.101	0.952	1.01	1.17	0.737	0.494
EPLC-272H	0.793	0.681	0.697	0.33	0.208	0.665		0.712	0.643	0.917	0.312	0.267	0.307	0.222	0.141	0.312	0.354	0.276	0.221	0.147
LXF-289	1.07	1.02	0.925	0.268	0.158	0.98	1.05	1	1.07	1.04	0.678	0.746	0.821	0.555	0.219	0.659	0.472	0.298	0.111	0.076
